Measured values: patent US9890171B2, “Aldosterone synthase inhibitors” (Boehringer Ingelheim International GmbH, priority 2014, dated 2018)

target: aldosterone synthase (CYP11B2) (Macaca fascicularis, UniProt A0A2K5UPL9); test: aldosterone synthase inhibition assay; assay type: biochemical, cynomolgus monkey; conditions: cynomolgus adrenal gland mitochondria, 2 μM corticosterone, aldosterone quantified by mass spectrometry
Outline: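 Cynomolgus adrenal mitochondria ([…]) used as CYP11B2 source with 2 μM corticosterone in 100 mM potassium phosphate pH 7.4, 1% DMSO; reaction started with 1 mM NADPH, run 60-90 min at 37° C. Aldosterone measured by mass spectrometry; IC50 from 4-parameter logistic fit, no-NADPH blank as 0%.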

aldosterone synthase (CYP11B2), sequence (A0A2K5UPL9 1-503): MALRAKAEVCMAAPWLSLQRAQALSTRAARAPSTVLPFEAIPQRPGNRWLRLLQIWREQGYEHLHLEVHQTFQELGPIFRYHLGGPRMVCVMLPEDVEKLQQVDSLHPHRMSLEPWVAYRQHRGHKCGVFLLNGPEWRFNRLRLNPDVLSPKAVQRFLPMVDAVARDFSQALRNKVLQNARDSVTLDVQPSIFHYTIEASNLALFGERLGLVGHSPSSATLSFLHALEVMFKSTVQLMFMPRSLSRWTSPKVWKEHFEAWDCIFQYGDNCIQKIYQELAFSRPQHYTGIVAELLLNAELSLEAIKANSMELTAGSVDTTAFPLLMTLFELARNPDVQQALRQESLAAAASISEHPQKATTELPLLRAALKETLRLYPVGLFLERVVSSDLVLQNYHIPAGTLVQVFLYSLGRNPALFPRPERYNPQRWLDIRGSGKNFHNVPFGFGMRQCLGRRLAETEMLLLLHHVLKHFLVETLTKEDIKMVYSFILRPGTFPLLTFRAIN

SMILES	IC50
NC(=O)c1cccc2cc(-c3cncc4c3COCC4O)cnc12 (single isomer, unassigned) [Compound 105, 3-(4-Hydroxy-3,4-dihydro-1H-pyrano[4,3-c]pyridin-8-yl)-quinoline-8-carboxylic acid amide]	51.1 nM
Cn1ncc2c(C#N)cc(-c3cncc4c3COCC4O)cc21 (single isomer, unassigned) [Compound 106, 6-(4-Hydroxy-3,4-dihydro-1H-pyrano[4,3-c]pyridin-8-yl)-1-methyl-1H-indazole-4-carbonitrile]	599 nM
OC1COCc2c(-c3ccc4c(c3)COCCO4)cncc21 (single isomer, unassigned) [Compound 107, 8-(2,3-Dihydro-5H-benzo[e][1,4]dioxepin-7-yl)-3,4-dihydro-1H-pyrano[4,3-c]pyridin-4-ol]	79.9 nM
OC1COCc2c(-c3ccc4c(c3)COCCO4)cncc21 (single isomer, unassigned) [Compound 108, 8-(2,3-Dihydro-5H-benzo[e][1,4]dioxepin-7-yl)-3,4-dihydro-1H-pyrano[4,3-c]pyridin-4-ol]	771 nM
CC(=O)N1Cc2ccc(-c3cncc4c3COCC4O)cc2C1 (single isomer, unassigned) [Compound 109, 1-[5-(4-Hydroxy-3,4-dihydro-1H-pyrano[4,3-c]pyridin-8-yl)-1,3-dihydro-isoindol-2-yl]-ethanone]	544 nM
O=c1ccoc2cc(-c3cncc4c3COCC4O)ccc12 (single isomer, unassigned) [Compound 110, 7-(4-Hydroxy-3,4-dihydro-1H-pyrano[4,3-c]pyridin-8-yl)-chromen-4-one]	13 nM
OC1c2cncc(-c3ccc4c(c3)COCCO4)c2COC12CC2 (single isomer, unassigned) [Compound 111, 8-(3,5-dihydro-2H-1,4-benzo[e][1,4]dioxepin-7-yl)spiro[1,4-dihydropyrano[4,3-c]pyridine-3,1′-cyclopropane]-4-ol]	114 nM
OC1c2cncc(-c3ccc4c(c3)COCCO4)c2COC12CC2 (single isomer, unassigned) [Compound 112, 8-(3,5-dihydro-2H-1,4-benzo[e][1,4]dioxepin-7-yl)spiro[1,4-dihydropyrano[4,3-c]pyridine-3,1′-cyclopropane]-4-ol]	40.9 nM
Cn1nc(C#N)c2ccc(-c3cncc4c3COCC4O)cc21 (single isomer, unassigned) [Compound 113, 6-(4-Hydroxy-3,4-dihydro-1H-pyrano[4,3-c]pyridin-8-yl)-1-methyl-1H-indazole-3-carbonitrile]	14.5 nM
Cc1noc2ccc(-c3cncc4c3COC3(CC3)C4O)cc12 (single isomer, unassigned) [Compound 114, 8-(3-methyl-1,2-benzoxazol-5-yl)spiro[1,4-dihydropyrano[4,3-c]pyridine-3,1′-cyclopropane]-4-ol]	18.8 nM
O=C1CCCc2ccc(-c3cncc4c3COCC4O)cc21 (single isomer, unassigned) [Compound 115, 7-(4-Hydroxy-3,4-dihydro-1H-pyrano[4,3-c]pyridin-8-yl)-3,4-dihydro-2H-naphthalen-1-one]	580 nM
O=C1CCCc2ccc(-c3cncc4c3COCC4O)cc21 (single isomer, unassigned) [Compound 116, 7-(4-Hydroxy-3,4-dihydro-1H-pyrano[4,3-c]pyridin-8-yl)-3,4-dihydro-2H-naphthalen-1-one]	26.3 nM
O=C1CCCc2cc(-c3cncc4c3COCC4O)ccc21 (single isomer, unassigned) [Compound 117, 6-(4-Hydroxy-3,4-dihydro-1H-pyrano[4,3-c]pyridin-8-yl)-3,4-dihydro-2H-naphthalen-1-one]	103 nM
O=C1CCCc2cc(-c3cncc4c3COCC4O)ccc21 (single isomer, unassigned) [Compound 118, 6-(4-Hydroxy-3,4-dihydro-1H-pyrano[4,3-c]pyridin-8-yl)-3,4-dihydro-2H-naphthalen-1-one]	12.5 nM
O=C1NCCc2ccc(-c3cncc4c3COCC4O)cc21 (single isomer, unassigned) [Compound 119, 7-(4-Hydroxy-3,4-dihydro-1H-pyrano[4,3-c]pyridin-8-yl)-3,4-dihydro-2H-isoquinolin-1-one]	960 nM
O=C1NCCc2cc(-c3cncc4c3COCC4O)ccc21 (single isomer, unassigned) [Compound 120, 6-(4-Hydroxy-3,4-dihydro-1H-pyrano[4,3-c]pyridin-8-yl)-3,4-dihydro-2H-isoquinolin-1-one]	790 nM
O=C1NCCc2cc(-c3cncc4c3COCC4O)ccc21 (single isomer, unassigned) [Compound 121, 6-(4-Hydroxy-3,4-dihydro-1H-pyrano[4,3-c]pyridin-8-yl)-3,4-dihydro-2H-isoquinolin-1-one]	95 nM
O=C1CCOc2cc(-c3cncc4c3COCC4O)ccc21 (single isomer, unassigned) [Compound 122, 7-(4-Hydroxy-3,4-dihydro-1H-pyrano[4,3-c]pyridin-8-yl)-chroman-4-one]	194 nM

SMILES	IC50
O=C1CCOc2cc(-c3cncc4c3COCC4O)ccc21 (single isomer, unassigned) [Compound 123, 7-(4-Hydroxy-3,4-dihydro-1H-pyrano[4,3-c]pyridin-8-yl)-chroman-4-one]	16.3 nM
CN1CCc2cc(-c3cncc4c3COCC4O)ccc2C1=O (single isomer, unassigned) [Compound 124, 6-(4-Hydroxy-3,4-dihydro-1H-pyrano[4,3-c]pyridin-8-yl)-2-methyl-3,4-dihydro-2H-isoquinolin-1-one]	1010 nM
O=c1ccc2cc(-c3cncc4c3COCC4O)ccc2o1 (single isomer, unassigned) [Compound 125, 6-(4-Hydroxy-3,4-dihydro-1H-pyrano[4,3-c]pyridin-8-yl)-chromen-2-one]	22.8 nM
O=c1ccc2cc(-c3cncc4c3COCC4O)ccc2o1 (single isomer, unassigned) [Compound 126, 6-(4-Hydroxy-3,4-dihydro-1H-pyrano[4,3-c]pyridin-8-yl)-chromen-2-one]	14 nM
OC1COCc2c(-c3ccc4c(Cl)n[nH]c4c3)cncc21 (single isomer, unassigned) [Compound 127, 8-(3-Chloro-1H-indazol-6-yl)-3,4-dihydro-1H-pyrano[4,3-c]pyridin-4-ol]	6.7 nM
CCC(=O)NC1COCc2c(-c3ccc4c(Cl)n[nH]c4c3)cncc21 (single isomer, unassigned) [Compound 128, N-[8-(3-Chloro-1H-indazol-6-yl)-3,4-dihydro-1H-pyrano[4,3-c]pyridin-4-yl]-propionamide]	11.2 nM
CCS(=O)(=O)NC1COCc2c(-c3ccc4c(Cl)n[nH]c4c3)cncc21 (single isomer, unassigned) [Compound 129, Ethanesulfonic acid [8-(3-chloro-1H-indazol-6-yl)-3,4-dihydro-1H-pyrano[4,3-c]pyridin-4-yl]-amide]	45.9 nM
OC1COCc2c(-c3cc(Cl)c4cn[nH]c4c3)cncc21 (single isomer, unassigned) [Compound 130, 8-(4-Chloro-1H-indazol-6-yl)-3,4-dihydro-1H-pyrano[4,3-c]pyridin-4-ol]	238 nM
OC1CCOc2ccc(-c3cncc4c3COCC4O)cc21 (single isomer, unassigned) [Compound 131, 8-(4-Hydroxy-chroman-6-yl)-3,4-dihydro-1H-pyrano[4,3-c]pyridin-4-ol]	1470 nM
CCC(=O)NC1COCc2c(-c3ccc4c(c3)C(O)CCO4)cncc21 (single isomer, unassigned) [Compound 132, N-[8-(4-Hydroxy-chroman-6-yl)-3,4-dihydro-1H-pyrano[4,3-c]pyridin-4-yl]-propionamide]	518 nM
CCS(=O)(=O)NC1COCc2c(-c3ccc4c(c3)C(O)CCO4)cncc21 (single isomer, unassigned) [Compound 133, Ethanesulfonic acid [8-(4-hydroxy-chroman-6-yl)-3,4-dihydro-1H-pyrano[4,3-c]pyridin-4-yl]-amide]	1470 nM
OC1CCOc2ccc(-c3cncc4c3COCC4O)cc21 (single isomer, unassigned) [Compound 134, 8-(4-Hydroxy-chroman-6-yl)-3,4-dihydro-1H-pyrano[4,3-c]pyridin-4-ol]	253 nM
CCC(=O)NC1COCc2c(-c3ccc4c(c3)C(O)CCO4)cncc21 (single isomer, unassigned) [Compound 135, N-[8-(4-Hydroxy-chroman-6-yl)-3,4-dihydro-1H-pyrano[4,3-c]pyridin-4-yl]-propionamide]	341 nM
CCS(=O)(=O)NC1COCc2c(-c3ccc4c(c3)C(O)CCO4)cncc21 (single isomer, unassigned) [Compound 136, Ethanesulfonic acid [8-(4-hydroxy-chroman-6-yl)-3,4-dihydro-1H-pyrano[4,3-c]pyridin-4-yl]-amide]	10000 nM
CC1(O)CCOc2ccc(-c3cncc4c3COCC4O)cc21 (single isomer, unassigned) [Compound 137, 8-(4-Hydroxy-4-methyl-chroman-6-yl)-3,4-dihydro-1H-pyrano[4,3-c]pyridin-4-ol]	1870 nM
CC1(O)CCOc2ccc(-c3cncc4c3COCC4O)cc21 (single isomer, unassigned) [Compound 138, 8-(4-Hydroxy-4-methyl-chroman-6-yl)-3,4-dihydro-1H-pyrano[4,3-c]pyridin-4-ol]	1560 nM
CC1(O)CCOc2ccc(-c3cncc4c3COCC4O)cc21 (single isomer, unassigned) [Compound 139, 8-(4-Hydroxy-4-methyl-chroman-6-yl)-3,4-dihydro-1H-pyrano[4,3-c]pyridin-4-ol]	2800 nM
CC1(O)CCOc2ccc(-c3cncc4c3COCC4O)cc21 (single isomer, unassigned) [Compound 140, 8-(4-Hydroxy-4-methyl-chroman-6-yl)-3,4-dihydro-1H-pyrano[4,3-c]pyridin-4-ol]	12000 nM
